# Reference: ChEMBL document CHEMBL5154770, “Discovery of novel ataxia telangiectasia mutated (ATM) kinase modulators: Computational simulation, biological evaluation and cancer combinational chemotherapy study” (Eur J Med Chem, 2022)
# Active and inactive are the calls of the source. No cut-off for these calls is given here.
# Tests used:
# MCF7 [1] = experiment: Antagonistic cytotoxicity against human MCF7 cells measured after 2 days in presence of 5 uM 2(((24(2,4-dichlorobenzyl)oxy)naphthalen-1-yl)methyl)amino)ethan-1-ol by SRB assay; type: functional, cell-based; details: MCF7, 48 h
# MCF7 [2] = experiment: Antagonistic cytotoxicity against human MCF7 cells measured after 2 days in presence of 5 uM KU55933 by SRB assay; type: functional, cell-based; details: MCF7, 48 h
# MCF7 [3] = experiment: Antagonistic cytotoxicity against human MCF7 cells measured after 2 days in presence of 5 uM KU60019 by SRB assay; type: functional, cell-based; details: MCF7, 48 h
# MCF7 [4] = experiment: Antagonistic cytotoxicity against human MCF7 cells measured after 2 days in presence of 50 nM AZD0156 by SRB assay; type: functional, cell-based; details: MCF7, 48 h
# MCF7 [5] = experiment: Antagonistic cytotoxicity against human MCF7 cells assessed as combination index measured after 2 days in presence of 5 uM 2(((24(2,4-dichlorobenzyl)oxy)naphthalen-1-yl)methyl)amino)ethan-1-ol by SRB assay; type: functional; details: time 2 day
# MCF7 [6] = experiment: Antagonistic cytotoxicity against human MCF7 cells assessed as combination index measured after 2 days in presence of 5 uM KU55933 by SRB assay; type: functional; details: time 2 day
# MCF7 [7] = experiment: Antagonistic cytotoxicity against human MCF7 cells assessed as combination index measured after 2 days in presence of 5 uM KU60019 by SRB assay; type: functional; details: time 2 day
# MCF7 [8] = experiment: Antagonistic cytotoxicity against human MCF7 cells assessed as combination index measured after 2 days in presence of 50 nM AZD0156 by SRB assay; type: functional; details: time 2 day
# SW480 [9] = experiment: Antagonistic cytotoxicity against human SW480 cells measured after 3 days in presence of 5 uM 2(((24(2,4-dichlorobenzyl)oxy)naphthalen-1-yl)methyl)amino)ethan-1-ol by SRB assay; type: functional, cell-based; details: SW480, 72 h
# SW480 [10] = experiment: Antagonistic cytotoxicity against human SW480 cells measured after 3 days in presence of 5 uM KU55933 by SRB assay; type: functional, cell-based; details: SW480, 72 h
# SW480 [11] = experiment: Antagonistic cytotoxicity against human SW480 cells measured after 3 days in presence of 5 uM KU60019 by SRB assay; type: functional, cell-based; details: SW480, 72 h
# SW480 [12] = experiment: Antagonistic cytotoxicity against human SW480 cells assessed as combination index measured after 3 days in presence of 5 uM 2(((24(2,4-dichlorobenzyl)oxy)naphthalen-1-yl)methyl)amino)ethan-1-ol by SRB assay; type: functional; details: time 3 day
# SW480 [13] = experiment: Antagonistic cytotoxicity against human SW480 cells assessed as combination index measured after 3 days in presence of 5 uM KU55933 by SRB assay; type: functional; details: time 3 day
# SW480 [14] = experiment: Antagonistic cytotoxicity against human SW480 cells assessed as combination index measured after 3 days in presence of 5 uM KU60019 by SRB assay; type: functional; details: time 3 day
# SW480 [15] = experiment: Antagonistic cytotoxicity against human SW480 cells assessed as combination index measured after 3 days in presence of 50 nM AZD0156 by SRB assay; type: functional; details: time 3 day
# MCF7 [16] = experiment: Cytotoxicity against human MCF7 cells measured after 6 days in presence of 5 uM 2(((24(2,4-dichlorobenzyl)oxy)naphthalen-1-yl)methyl)amino)ethan-1-ol by SRB assay; type: functional, cell-based; details: MCF7, 144 h
# MCF7 [17] = experiment: Synergistic cytotoxicity against human MCF7 cells measured after 6 days in presence of 50 nM AZD0156 by SRB assay; type: functional, cell-based; details: MCF7, 144 h
# MCF7 [18] = experiment: Synergistic cytotoxicity against human MCF7 cells assessed as combination index measured after 6 days in presence of 50 nM AZD0156 by SRB assay; type: functional; details: time 6 day
# SW480 [19] = experiment: Cytotoxicity against human SW480 cells measured after 9 days in presence of 5 uM 2(((24(2,4-dichlorobenzyl)oxy)naphthalen-1-yl)methyl)amino)ethan-1-ol by SRB assay; type: functional, cell-based; details: SW480, 216 h
# SW480 [20] = experiment: Additive cytotoxicity against human SW480 cells measured after 9 days in presence of 5 uM KU55933 by SRB assay; type: functional, cell-based; details: SW480, 216 h
# SW480 [21] = experiment: Synergistic cytotoxicity against human SW480 cells measured after 9 days in presence of 5 uM KU60019 by SRB assay; type: functional, cell-based; details: SW480, 216 h
# SW480 [22] = experiment: Synergistic cytotoxicity against human SW480 cells measured after 9 days in presence of 50 nM AZD0156 by SRB assay; type: functional, cell-based; details: SW480, 216 h
# SW480 [23] = experiment: Additive cytotoxicity against human SW480 cells assessed as combination index measured after 9 days in presence of 5 uM KU55933 by SRB assay; type: functional; details: time 9 day
# SW480 [24] = experiment: Synergistic cytotoxicity against human SW480 cells assessed as combination index measured after 9 days in presence of 5 uM KU60019 by SRB assay; type: functional; details: time 9 day
# MCF7 [25] = experiment: Synergistic cytotoxicity against human MCF7 cells in presence of 10 uM 3-Chloro-4-methoxy-N-((4-(oxazolo[4,5-b]pyridin-2-yl)phenyl)carbamothioyl)benzamide measured after 2 days by SRB assay; type: functional, cell-based; details: MCF7, 48 h
# MCF7 [26] = experiment: Synergistic cytotoxicity against human MCF7 cells assessed as combination index in presence of 10 uM 3-Chloro-4-methoxy-N-((4-(oxazolo[4,5-b]pyridin-2-yl)phenyl)carbamothioyl)benzamide measured after 2 days by SRB assay; type: functional; details: time 2 day
# MCF7 [27] = experiment: Antagonistic cytotoxicity against human MCF7 cells in presence of 10 uM 3-Chloro-4-methoxy-N-((4-(oxazolo[4,5-b]pyridin-2-yl)phenyl)carbamothioyl)benzamide measured after 6 days by SRB assay; type: functional, cell-based; details: MCF7, 144 h
# MCF7 [28] = experiment: Antagonistic cytotoxicity against human MCF7 cells assessed as combination index in presence of 10 uM 3-Chloro-4-methoxy-N-((4-(oxazolo[4,5-b]pyridin-2-yl)phenyl)carbamothioyl)benzamide measured after 6 days by SRB assay; type: functional; details: time 6 day
# SW480 [29] = experiment: Antagonistic cytotoxicity against human SW480 cells measured after 9 days in presence of 3-Chloro-4-methoxy-N-((4-(oxazolo[4,5-b]pyridin-2-yl)phenyl)carbamothioyl)benzamide by SRB assay; type: functional, cell-based; details: time 9.0 day
# NCI-H1299 [30] = experiment: Cytotoxicity against human NCI-H1299 cells measured in presence of 5 uM 2(((2-(2,4-dichlorobenzyl)oxy)naphthalen-1-yl)methyl)amino)ethan-1-ol after 2 days by SRB assay; type: functional, cell-based; details: NCI-H1299, 48 h
# NCI-H1299 [31] = experiment: Additive cytotoxicity against human NCI-H1299 cells measured in presence of 5 uM KU55933 after 2 days by SRB assay; type: functional, cell-based; details: NCI-H1299, 48 h
# NCI-H1299 [32] = experiment: Additive cytotoxicity against human NCI-H1299 cells assessed as combination index measured in presence of 5 uM KU55933 after 2 days by SRB assay; type: functional; details: time 2 day
# NCI-H1299 [33] = experiment: Additive cytotoxicity against human NCI-H1299 cells measured in presence of 5 uM KU55933 after 6 days by SRB assay; type: functional, cell-based; details: NCI-H1299, 144 h
# NCI-H1299 [34] = experiment: Synergistic cytotoxicity against human NCI-H1299 cells measured in presence of 5 uM KU60019 after 6 days by SRB assay; type: functional, cell-based; details: NCI-H1299, 144 h
# NCI-H1299 [35] = experiment: Synergistic cytotoxicity against human NCI-H1299 cells measured in presence of 50 nM AZD0156 after 6 days by SRB assay; type: functional, cell-based; details: NCI-H1299, 144 h
# NCI-H1299 [36] = experiment: Additive cytotoxicity against human NCI-H1299 cells assessed as combination index measured in presence of 5 uM KU55933 after 6 days by SRB assay; type: functional; details: time 6 day
# NCI-H1299 [37] = experiment: Synergistic cytotoxicity against human NCI-H1299 cells assessed as combination index measured in presence of 5 uM KU60019 after 6 days by SRB assay; type: functional; details: time 6 day
# NCI-H1299 [38] = experiment: Synergistic cytotoxicity against human NCI-H1299 cells assessed as combination index measured in presence of 50 nM AZD0156 after 6 days by SRB assay; type: functional; details: time 6 day
SMILES,IC50 (MCF7 [1]),IC50 (MCF7 [2]),IC50 (MCF7 [3]),IC50 (MCF7 [4]),CI (MCF7 [5]),CI (MCF7 [6]),CI (MCF7 [7]),CI (MCF7 [8]),IC50 (SW480 [9]),IC50 (SW480 [10]),IC50 (SW480 [11]),CI (SW480 [12]),CI (SW480 [13]),CI (SW480 [14]),CI (SW480 [15]),IC50 (MCF7 [16]),IC50 (MCF7 [17]),CI (MCF7 [18]),IC50 (SW480 [19]),IC50 (SW480 [20]),other results
CCc1c2c(nc3ccc(OC(=O)N4CCC(N5CCCCC5)CC4)cc13)-c1cc3c(c(=O)n1C2)COC(=O)[C@]3(O)CC [IRINOTECAN],42.4 µM,38.1 µM,38.1 µM,39.2 µM,2.1,1.4,1.6,1.3,12.4 µM,7.2 µM,15.4 µM,3.2,1.6,3.4,2.4,1.68 µM,0.16 µM,0.97,0.07 µM,0.6 µM,IC50 (SW480 [21]): < 0.12 µM; IC50 (SW480 [22]): < 0.12 µM; CI (SW480 [23]): 1.02; CI (SW480 [24]): 0.25; IC50 (MCF7 [25]): 26.3 µM; CI (MCF7 [26]): 0.78; IC50 (MCF7 [27]): 1.88 µM; CI (MCF7 [28]): 1.16; Activity (SW480 [29]): Active; IC50 (NCI-H1299 [30]): 11.1 µM; IC50 (NCI-H1299 [31]): 13.1 µM; CI (NCI-H1299 [32]): 1.1; IC50 (NCI-H1299 [33]): 1.67 µM; IC50 (NCI-H1299 [34]): 0.27 µM; IC50 (NCI-H1299 [35]): 0.22 µM; CI (NCI-H1299 [36]): 1.1; CI (NCI-H1299 [37]): 0.66; CI (NCI-H1299 [38]): 0.25
COc1cc([C@@H]2c3cc4c(cc3[C@@H](O[C@@H]3O[C@@H]5CO[C@@H](C)O[C@H]5[C@H](O)[C@H]3O)[C@H]3COC(=O)[C@H]23)OCO4)cc(OC)c1O [ETOPOSIDE],46.2 µM,58.8 µM,87.4 µM,62.7 µM,2.8,2.7,4.2,2.8,3.6 µM,3.5 µM,3.8 µM,2,1.4,1.7,1.3,0.66 µM,0.11 µM,0.19,0.07 µM,0.08 µM,IC50 (SW480 [21]): < 0.01 µM; IC50 (SW480 [22]): < 0.01 µM; CI (SW480 [23]): 0.95; CI (SW480 [24]): 0.22; IC50 (MCF7 [25]): 23.6 µM; CI (MCF7 [26]): 0.84; IC50 (MCF7 [27]): 0.65 µM; CI (MCF7 [28]): 1.16; Activity (SW480 [29]): Active; IC50 (NCI-H1299 [30]): 11.1 µM; IC50 (NCI-H1299 [31]): 9.37 µM; CI (NCI-H1299 [32]): 0.98; IC50 (NCI-H1299 [33]): 0.46 µM; IC50 (NCI-H1299 [34]): 0.23 µM; IC50 (NCI-H1299 [35]): 0.24 µM; CI (NCI-H1299 [36]): 0.91; CI (NCI-H1299 [37]): 0.77; CI (NCI-H1299 [38]): 0.39
